Results reported in patent US9353082B2, “Pharmaceutical compounds” (BIAL—PORTELA & CA, S.A., priority 2008, dated 2016).

Target: T1, FAAH (Mus musculus, UniProt O08914)
T1 construct: A fragment of liver, left lung lobe and brain without cerebellum were removed; from tissue; host or cells: male NMRI mice; brain (without cerebellum) and liver homogenates
T1 sequence (O08914 1-579): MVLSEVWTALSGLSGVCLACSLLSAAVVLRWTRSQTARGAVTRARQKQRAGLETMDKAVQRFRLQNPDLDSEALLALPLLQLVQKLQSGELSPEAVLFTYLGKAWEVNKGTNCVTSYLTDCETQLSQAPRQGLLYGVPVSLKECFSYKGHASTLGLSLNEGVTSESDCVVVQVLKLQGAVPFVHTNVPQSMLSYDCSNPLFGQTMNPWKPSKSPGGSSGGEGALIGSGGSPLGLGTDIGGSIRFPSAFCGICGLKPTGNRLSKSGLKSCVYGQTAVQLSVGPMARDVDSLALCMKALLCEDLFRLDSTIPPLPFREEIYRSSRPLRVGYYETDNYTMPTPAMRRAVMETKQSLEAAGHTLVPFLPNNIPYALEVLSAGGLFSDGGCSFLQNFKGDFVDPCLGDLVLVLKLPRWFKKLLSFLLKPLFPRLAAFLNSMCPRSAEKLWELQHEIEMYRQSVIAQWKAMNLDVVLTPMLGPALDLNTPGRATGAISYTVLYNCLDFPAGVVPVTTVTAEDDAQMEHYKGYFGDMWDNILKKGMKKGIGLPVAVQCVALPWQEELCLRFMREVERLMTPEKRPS
Test: In vivo FAAH inhibition after oral dosing, remaining activity in liver homogenate (LVh, peripheral tissue)
Design: species or system NMRI mice
Conditions: 8 h
Outline: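 Remaining FAAH activity is given as % of vehicle-treated controls after blank subtraction, measured by radiolabelled AEA hydrolysis (2 μM AEA, 5 nM 3H-AEA, 37 °C) in brain (10 min) or liver (7 min) homogenates. These came from fasted male NMRI mice dosed orally at 30 or 3 mg/kg.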

FAAH LVh 3 mg · kg · 8 h (in vivo, mouse liver, 3 mg/kg oral, remaining enzymatic activity): 101.1 % of control
In Vivo LVh 3 mg/kg 8 h, remaining FAAH activity (liver homogenate, 3 mg/kg): 101.1 % of control
Compound: COc1cccc(-c2cn(C(=O)N3CCCc4ccccc43)cn2)c1 [Compound 39, (3,4-dihydroquinolin-1(2H)-yl)(4-(3-methoxyphenyl)-1H-imidazol-1-yl)methanone]
